# What was measured:
# [1] = molecular target: T1, Diacylglycerol O-acyltransferase 1 (Mus musculus, UniProt Q9Z2A7); test: Inhibition Assay: Â Assay buffer [20 mM HEPES (pH 7.4), 100 mM MgCl2 and 0.04% bovine serum albumin (BSA)] containing 500 uM of enzyme substrate (didecanoyl glycerol) and 7.5 uM radiolabeled acyl-CoA substrate ([14C]decanoyl-CoA) was added to each well of a phospholipid-coated radiometric assay plate.; assay type: microsomes, Liver
# T1 sequence (Q9Z2A7 whole entry): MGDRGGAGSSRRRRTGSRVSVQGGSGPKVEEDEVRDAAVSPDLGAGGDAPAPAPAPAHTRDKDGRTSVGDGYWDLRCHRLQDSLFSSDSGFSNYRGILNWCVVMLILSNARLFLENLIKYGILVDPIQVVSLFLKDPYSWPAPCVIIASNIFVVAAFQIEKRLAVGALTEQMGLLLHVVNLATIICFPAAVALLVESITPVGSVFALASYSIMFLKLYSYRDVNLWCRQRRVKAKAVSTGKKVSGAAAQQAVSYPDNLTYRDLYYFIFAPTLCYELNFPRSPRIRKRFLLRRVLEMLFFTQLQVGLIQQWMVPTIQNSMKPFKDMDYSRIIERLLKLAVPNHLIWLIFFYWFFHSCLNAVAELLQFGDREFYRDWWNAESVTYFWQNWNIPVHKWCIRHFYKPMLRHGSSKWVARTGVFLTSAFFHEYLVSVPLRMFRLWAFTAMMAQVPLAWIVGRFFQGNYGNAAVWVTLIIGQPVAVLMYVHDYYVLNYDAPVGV
# [2] = molecular target: T2, Diacylglycerol O-acyltransferase 1 (Homo sapiens, UniProt O75907); assay type: tissue-based, Liver
# T2 sequence (O75907 whole entry): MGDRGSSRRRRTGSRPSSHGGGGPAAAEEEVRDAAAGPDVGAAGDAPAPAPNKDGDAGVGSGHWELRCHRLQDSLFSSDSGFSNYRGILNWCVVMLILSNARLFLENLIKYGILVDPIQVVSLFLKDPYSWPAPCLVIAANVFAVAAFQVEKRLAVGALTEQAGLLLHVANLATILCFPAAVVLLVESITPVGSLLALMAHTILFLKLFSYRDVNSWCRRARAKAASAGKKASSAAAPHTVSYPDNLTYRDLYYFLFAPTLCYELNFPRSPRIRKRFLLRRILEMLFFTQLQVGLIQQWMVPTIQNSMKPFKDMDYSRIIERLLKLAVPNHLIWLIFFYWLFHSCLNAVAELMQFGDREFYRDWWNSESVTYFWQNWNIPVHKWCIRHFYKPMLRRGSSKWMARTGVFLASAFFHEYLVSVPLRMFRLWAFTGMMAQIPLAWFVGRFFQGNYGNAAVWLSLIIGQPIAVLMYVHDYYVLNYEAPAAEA
Structure (SMILES),IC50 [1],IC50 [2]
O=C(O)C[C@H]1CC[C@H](c2ccc(-c3cn4cc(C(=O)NCc5c(F)cccc5Cl)nc4s3)cc2)CC1,< 0.025 µM,< 0.01 µM
O=C(O)CC1CCC(c2ccc(-c3ccc4nc(C(=O)NCc5c(Cl)cccc5Cl)cn4c3)cc2)CC1 (stereo unspecified),< 0.05 µM,< 0.01 µM
O=C(O)C[C@H]1CC[C@H](c2ccc(-c3cn4cc(C(=O)NCc5ccc(F)c(Cl)c5)nc4s3)cc2)CC1,< 0.025 µM,< 0.01 µM
O=C(O)C[C@H]1CC[C@H](c2ccc(-c3cn4cc(C(=O)NCc5c(F)cc(Cl)cc5F)nc4s3)cc2)CC1,< 0.01 µM,< 0.01 µM
O=C(O)C[C@H]1CC[C@H](c2ccc(-c3cn4cc(C(=O)NCc5c(Cl)cccc5Cl)nc4s3)cc2)CC1,< 0.01 µM,< 0.01 µM
O=C(O)CC1CCC(c2ccc(-c3ccc4nc(C(=O)NC5(c6cc(F)ccc6F)CC5)cn4c3)cc2)CC1 (stereo unspecified),< 0.01 µM,< 0.01 µM
O=C(O)C[C@H]1CC[C@H](c2ccc(-c3cn4cc(C(=O)Nc5cccc(Cl)c5)nc4s3)cc2)CC1,< 0.15 µM,< 0.01 µM
O=C(O)C[C@H]1CC[C@H](c2ccc(-c3cn4cc(C(=O)NCc5ccc(OC(F)(F)F)c(Cl)c5)nc4s3)cc2)CC1,< 0.2 µM,< 0.225 µM
O=C(O)CC1CCC(c2ccc(-c3cn4cc(C(=O)Nc5ccc(F)c(Cl)c5)nc4s3)cc2)CC1 (stereo unspecified),< 0.1 µM,< 0.01 µM
O=C(O)C[C@H]1CC[C@H](c2ccc(-c3cn4cc(C(=O)NCc5c(F)cccc5F)nc4s3)cc2)CC1,< 0.025 µM,< 0.025 µM
O=C(O)CC1CCC(c2ccc(-c3ccc4nc(C(=O)NCc5c(F)cccc5F)cn4c3)cc2)CC1 (stereo unspecified),< 0.075 µM,< 0.025 µM
O=C(O)CC1CCC(c2ccc(-c3ccc4nc(C(=O)NCc5c(Cl)cccc5C(F)(F)F)cn4c3)cc2)CC1 (stereo unspecified),< 0.01 µM,< 0.01 µM
O=C(O)CC1CCC(c2ccc(-c3ccc4nc(C(=O)NCc5c(F)cccc5Cl)cn4c3)cc2)CC1 (stereo unspecified),< 0.05 µM,< 0.01 µM
